From patent publication US20240092756A1, “METHODS AND COMPOSITION FOR KRAS MODIFICATIONS” (2692372 ONTARIO, INC., priority 2020, published 2024)

Columns and labels:
[1] = target: KRAS G12C Lite (Homo sapiens, UniProt P01116, C118S/C51S/C80S/G12C/S136P/S39C); assay: Differential scanning fluorimetry, KRAS G12C Lite; format: binding; parameters: key: Y: protein destabilized; N: protein not destabilized; conditions: 37° C. 5 hours incubation
Description: (§1) KRas proteins at 0.05 mg/ml in buffer Hepes, 147 mM NaCl, 2% glycerol, 5 mM MgCl2, 1 mM EDTA, 10 μM GDP, pH 8.0 were incubated in the presence desired concentration of compounds (5% DMSO final concentration) at 37° C. for 5 hours. After incubation, Sypro Oange to a final concentration of 5× was added to each sample. 20 μl aliquots of samples were transferred PCR tubes, sealed with caps, and run in a BioRad CFX96 RTPCR thermocycler. In the instrument, the samples were heated at a rate of 1° C./min from 25 to 90 degrees. Fluorescence readings were taken every 1 degree. The data generated was exported and analyzed using GraphPad-Prism software. The denaturation curves were fit using a Boltzmann sigmoidal equation to calculate melting temperatures (Tm).

[2] = target: KRAS G12C (Homo sapiens, UniProt P01116, G12C); assay: Differential scanning fluorimetry, KRAS G12C; format: binding; parameters: purchased; key: Y: protein destabilized; N: protein not destabilized; conditions: 37° C. 5 hours incubation
Description: as §1

[3] = target: T1, KRAS G12C (SEQ ID NO:1 or SEQ ID NO:2) (Homo sapiens, UniProt P01116, G12C); assay: Intact mass analysis (LC-MS) of covalent modification, KRAS G12C; format: binding; parameters: key to KRAS G12C Modification: b: KRAS G12C modified; conditions: intact mass spectrometry; covalent modification of KRAS G12C FL
T1 construct: purchased
Description: The covalent modification of the proteins with the compounds were evaluated using intact mass analysis by liquid chromatography-mass spectrometry instrument (LC-MS/MS).
The reaction solution (20 μL) was prepared in 96-well plate and contained the protein (2 μM), the compound (100 μM), HEPES buffer (20 mM, pH 8), 2% DMSO, 2% glycerol, and 150 mM NaCl. The reaction was allowed to proceed for 24 h at 25° C. The reaction solution (1 μL) was injected into the LC/MS/MS without any further sample preparation.
The LC-MS/MS instrument comprises of a Waters G2-XS quadrupole-time of flight (QTof) mass spectrometer and a Waters Acuity I-class Ultra-High Performance Liquid Chromatography (UPLC) system. The I-class UPLC system includes a binary solvent manager (BSM), and an Acquity sample manager (SM). The mobile phase consisted of: A) 0.1% (v/v) formic acid in MilliQ water; B) 0.1% (v/v) formic acid acetonitrile. Gradients were run over 5 min and proceeded as follows: A:B, 85:15, 0.0-0.7 min, 85:15→15:85, 0.7-1.5 min, 10:90, 1.5-4 min, 10:90→85:15, 4-4.5 min, 85:15, 4.5-5 min. The analytical column was a Waters BEH C4 column 1.7 μm (50×1 mm) column with pore sizes of 300 Å. The TOF MS data was collected in positive ion mode (m/z of 400-2000 Da) using MassLynx software (Waters).
The spectral deconvolution was performed using UNIFI software (Waters). The added mass of the protein upon covalent modification to cysteine residues were specified. Multiple modification of up to 8 cysteine was allowed. All the adducts with signal intensities of <2% of the base peak were ignored. The % modification was calculated as the adduct signal intensity over the total intensities of the protein peaks and the adducts.

[4] = system: phospho-ERK1/2 in MIA PaCa-2 cells (express KRAS G12C); assay: ERK1/2 phosphorylation in MIA PaCa-2 cells; format: cell-based, human; parameters: key: X: KRAS G12C bound and modulated in cells
[5] = target: KRAS G12C Lite (SEQ ID NO:3) (Homo sapiens, UniProt P01116, C118S/C51S/C80S/G12C/S136P/S39C); assay: Intact mass analysis (LC-MS) of covalent modification, KRAS G12C Lite; format: binding; parameters: key to KRAS Lite Modification: a: KRAS Lite modified; conditions: intact mass spectrometry; covalent modification of KRAS G12C Lite
Outline: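 Protein (2 μM) reacted with compound (100 μM) for 24 h at 25° C in 20 mM HEPES pH 8, 150 mM NaCl, 2% DMSO, 2% glycerol, then analysed by intact-mass LC-MS (C4 column, positive-ion TOF). Up to 8 cysteine adducts allowed on deconvolution; adducts <2% of base peak ignored. % modification = adduct intensity over total protein plus adduct intensities.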

Compound | KRAS G12C Lite DSF ΔTm [1] | KRAS G12C DSF ΔTm [2] | KRAS G12C Modification [3] | pERK - MIA PaCa-2 - (6 hours, 5 uM) [4] | KRAS Lite Modification [5]
Cc1ccnc(C(C)C)c1-n1c(=O)nc(NC2CN(S(=O)(=O)c3c(F)c(F)c(F)c(F)c3C(F)(F)F)C2)c2cc(F)c(Cl)nc21 [Compound 14A, 7-chloro-6-fluoro-1-(2-isopropyl-4-methylpyridin-3-yl)-4-((1-((2,3,4,5-tetrafluoro-6-(trifluoromethyl)phenyl)sulfonyl)azetidin-3-yl)amino)pyrido[2,3-d]pyrimidin-2(1H)-one] | Y | Y | b | X | a
Cc1ccnc(C(C)C)c1-n1c(=O)nc(NC2CN(S(=O)(=O)c3c(F)c(F)c(F)c(F)c3C(F)(F)F)C2)c2cc(F)c(-c3c(O)cccc3F)nc21 [Compound 15A, 6-fluoro-7-(2-fluoro-6-hydroxyphenyl)-1-(2-isopropyl-4-methylpyridin-3-yl)-4-((1-((2,3,4,5-tetrafluoro-6-(trifluoromethyl)phenyl)sulfonyl)azetidin-3-yl)amino)pyrido[2,3-d]pyrimidin-2(1H)-one] | Y | Y | b | X | a
